Experimental data published in patent publication US20110065706A1, “Therapeutic Agents 812” (AstraZeneca AB, priority 2009, published 2011).

Target: T1, human GPR119 (Homo sapiens, UniProt Q8TDV5)
T1 construct: expressed in transfected cells; host or cells: HEK 293s
T1 sequence (Q8TDV5 1-335): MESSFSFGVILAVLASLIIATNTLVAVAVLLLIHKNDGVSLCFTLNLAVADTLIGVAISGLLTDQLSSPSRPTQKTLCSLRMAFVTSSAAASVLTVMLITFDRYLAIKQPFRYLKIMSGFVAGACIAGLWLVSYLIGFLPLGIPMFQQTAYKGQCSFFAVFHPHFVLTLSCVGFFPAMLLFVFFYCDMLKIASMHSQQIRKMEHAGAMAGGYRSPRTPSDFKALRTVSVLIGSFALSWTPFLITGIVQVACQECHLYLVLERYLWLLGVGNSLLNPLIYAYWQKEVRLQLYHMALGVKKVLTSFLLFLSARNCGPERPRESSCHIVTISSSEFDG
Test: Cyclic AMP (HTRF cAMP) assay for human GPR119, Method A
Assay type: cell-based
Details: for activation at 30 µM: HEK293S, 0.75 h, percent effect at top concentration 30 μM relative to maximum (50 μM Oleoylethanolamide) and minimum (1% DMSO) controls; for activation at 30 µM / EC50: Method A, HEK 293s cells over-expressing human GPR119; for EC50: midpoint of dose response curve, selected examples; for significant activity at a top concentration of 30 μM: human GPR119 cAMP assay, top concentration 30 μM

Compound | activation at 30 µM [%] | EC50 [nM] | significant activity at a top concentration of 30 μM
CCS(=O)(=O)c1ccc(COc2cnc(N3CCN(C(=O)OC(C)(C)C)CC3)nc2)cc1 [Example 83, Tert-butyl 4-(5-(4-(ethylsulfonyl)benzyloxy)pyrimidin-2-yl)piperazine-1-carboxylate] | 66 | 123 | 
CC(C)(C)OC(=O)N1CCN(c2ncc(OCc3ccc(S(=O)(=O)C4CC4)cc3)cn2)CC1 [Example 84, Tert-butyl 4-(5-(4-(cyclopropyl-sulfonyl)benzyloxy)pyrimidin-2-yl)pipcrazinc-1-carboxylate] | 48 |  | 
CC(C)c1nc(N2CCN(c3ncc(OCc4ccc(S(C)(=O)=O)cc4)cn3)CC2)no1 [Example 87, 5-Isopropyl-3-(4-(5-(4-(methylsulfonyl)benzyloxy)pyrimidin-2-yl)piperazin-1-yl)-1,2,4-oxadiazole] | 48 |  | 
CS(=O)(=O)c1ccc(COc2cnc(N3CCN(c4noc(C(F)(F)F)n4)CC3)nc2)cc1 [Example 88, 3-(4-(5-(4-(methylsulfonyl)bcnzyloxy)pyrimidin-2-yl)pipcrazin-1-yl)-5-(trifluoromcthyl)-1,2,4-oxadiazole] | 79 |  | 
CC(C)c1nc(N2CCN(c3ncc(OCc4ccc(S(C)(=O)=O)cc4)cn3)[C@H](C)C2)no1 [Example 89] | 73 |  | 
C[C@@H]1CN(c2noc(C(F)(F)F)n2)CCN1c1ncc(OCc2ccc(S(C)(=O)=O)cc2)cn1 [Example 90, (R)-3-(3-methyl-4-(5-(4-(mcthylsulfonyl)bcnzyloxy)pyrimidin-2-yl)pipcrazin-1-yl)-5-(trifluoromcthyl)-1,2,4-oxadiazole] | 75 | 26 | 
CC(C)(C)OC(=O)N1CCN(c2ncc(OCc3ccc([S+]([O-])C(F)(F)F)cc3)cn2)CC1 (stereo not shown) [Example 91, Tert-butyl 4-(5-(4-(trifluoromethylsulfinyl)benzyloxy)pyrimidin-2-yl)piperazine-1-carboxylate] | 32 |  | 
CC(C)(C)OC(=O)N1CCN(c2ncc(OCc3ccc(S(=O)(=O)CCN4CCOCC4)cc3)cn2)CC1 [Example 92, Tert-butyl 4-(5-(4-(2-morpholinoethylsulfonyl)benzyloxy)pyrimidin-2-yl)piperazine-1-carboxylate] | 68 |  | 
C[S+]([O-])c1ccc(COc2cnc(N3CCN(C(=O)OC(C)(C)C)CC3)nc2)cc1 (stereo not shown) [Example 93, Tert-butyl 4-(5-(4-(methylsulfinyl)benzyloxy)pyrimidin-2-yl)piperazine-1-carboxylate] | 82 |  | 
CC(C)C(=O)Nc1ncc(COc2cnc(N3CCN(C(=O)OC(C)(C)C)CC3)nc2)cn1 [Example 94, Tert-butyl 4-(5-((2-isobutyramidopyrimidin-5-yl)methoxy)pyrimidin-2-yl)piperazine-1-carboxylate] | 44 |  | 
C[C@@H]1CN(C(=O)OC2(C(F)(F)F)COC2)CCN1c1ncc(OCc2ccc(S(C)(=O)=O)cc2)cn1 [Example 110, (R)-3-(trifluoromethyl) oxetan-3-yl 3-mcthyl-4-(5-(4-(mcthylsulfonyl)benzyloxy)pyrimidin-2-yl)piperazine-1-carboxylate] | 55 |  | 
COc1cc(COc2cnc(N3CCN(C(=O)OC(C)(C)C)CC3)nc2)cc(OC)n1 [tert-butyl 4-[5-[(2,6-dimethoxy-4-pyridyl)methoxy]pyrimidin-2-yl]piperazine-1-carboxylate] |  |  | did not show significant activity
CN1CCC(NC(=O)c2ccc(COc3cnc(N4CCN(C(=O)OC(C)(C)C)CC4)nc3)cc2)CC1 [tert-butyl 4-[5-[[4-[(1-methyl-4-piperidyl)carbamoyl]phenyl]methoxy]pyrimidin-2-yl]piperazine-1-carboxylate] |  |  | did not show significant activity
CN1CCC(N(C)C(=O)c2ccc(COc3cnc(N4CCN(C(=O)OC(C)(C)C)CC4)nc3)cc2)CC1 [tert-butyl 4-[5-[[4-[methyl-(1-methyl-4-piperidyl)carbamoyl]phenyl]methoxy]pyrimidin-2-yl]piperazine-1-carboxylate] |  |  | did not show significant activity

Results, then the molecule that gave them:

activation at 30 µM [%] | EC50 [nM] | significant activity at a top concentration of 30 μM | Compound
41 |  |  | C[C@@H]1CN(C(=O)OC2(C)COC2)CCN1c1ncc(OCc2ccc(S(C)(=O)=O)cc2)cn1 [Example 80, (R)-3-methyloxetan-3-yl 3-methyl-4-(5-(4-(methylsulfonyl)benzyloxy)pyrimi-din-2-yl)piperazine-1-carboxylate]
143 |  |  | CC1(OC(=O)N2CCN(c3ncc(OCc4ccncc4C#N)cn3)CC2)COC1 [Example 81, 3-methyloxetan-3-yl 4-(5-((3-cyanopyridin-4-yl)methoxy)pyrimi-din-2-yl)piperazine-1-carboxylate]
102 | 675 |  | C[C@@H]1CN(C(=O)OC2CCOCC2)CCN1c1ncc(OCc2ccncc2C#N)cn1 [Example 82, (R)-Tetrahydro-2H-pyran-4-yl 4-(5-((3-cyanopyridin-4-yl)methoxy)pyrimidin-2-yl)-3-methylpiperazine-1-carboxylate]
167 |  |  | CC(C)c1nc(N2CCN(c3ncc(OCc4ccncc4C#N)cn3)CC2)no1 [Example 85, 4-((2-(4-(5-Isopropyl-1,2,4-oxadiazol-3-yl)piperazin-1-yl)pyrimidin-5-yloxy)methyl)nicotinonitrile]
244 |  |  | C[C@@H]1CN(C(=O)O[C@H](C)C(F)(F)F)CCN1c1ncc(OCc2ccncc2C#N)cn1 [Example 103, (R)—((R)-1,1,1-trifluoropropan-2-yl) 4-(5-((3-cyanopyridin-4-yl)methoxy)pyrimidin-2-yl)-3-methylpiperazine-1-carboxylate]
315 |  |  | C[C@@H]1CN(C(=O)O[C@@H](C)C(F)(F)F)CCN1c1ncc(OCc2ccncc2C#N)cn1 [Example 104, (R)-((S)-1,1,1-trifluoropropan-2-yl)4-(5-((3-cyanopyridin-4-yl)methoxy)pyrimidin-2-yl)-3-mcthylpipcrazine-1-carboxylate]
193 |  |  | N#Cc1cnccc1COc1cnc(N2CCN(C(=O)OCC(F)(F)F)CC2)nc1 [Example 106, 2,2,2-trifluorocthyl 4-(5-((3-cyanopyridin-4-yl)mcthoxy)pyrimidin-2-yl)pipcrazinc-1-carboxylate]
188 |  |  | C[C@@H]1CN(c2noc(C3(C)COC3)n2)CCN1c1ncc(OCc2ccncc2C#N)cn1 [Example 107, (R)-4-((2-(2-methyl-4-(5-(3-methyloxetan-3-yl)-1,2,4-oxadiazol-3-yl)piperazin-1-yl)pyrimidin-5-yloxy)methyl)nicotinonitrile]
171 |  |  | C[C@@H]1CN(C(=O)OC2(C(F)(F)F)COC2)CCN1c1ncc(OCc2ccncc2C#N)cn1 [Example 111, (R)-3-(trifluoromcthyl) oxetan-3-yl 4-(5-((3-cyanopyridin-4-yl)mcthoxy)pyrimidin-2-yl)-3-mcthylpipcrazine-1-carboxylate]
 |  | did not show significant activity | CC(=O)Nc1ncc(COc2cnc(N3CCN(C(=O)OC(C)(C)C)CC3)nc2)cn1 [tert-butyl 4-[5-[(2-acetamidopyrimidin-5-yl)methoxy]pyrimidin-2-yl]piperazine-1-carboxylate]
 |  | did not show significant activity | Cc1cc(COc2cnc(N3CCN(C(=O)OC(C)(C)C)CC3)nc2)ccn1 [tert-butyl 4-[5-[(2-methyl-4-pyridyl)methoxy]pyrimidin-2-yl]piperazine-1-carboxylate]
